The text below walks through data of patent publication US20080125493A1, “Use of agomelatine in obtaining medicaments intended for the treatment of periventricular leukomalacia” (LES LABORATOIRES SERVIER, priority 2006, published 2008).

The test system of the assay is lesions of the white matter of the brain produced by intracerebral injection of ibotenate. Nature of the assay: Neuroprotective effects on ibotenate-induced white matter lesions in 5-day-old baby mice. It is filed as in vivo. As to the method:
Immediately after the administration of 10 μg of ibotenate, there are injected by the i.p. route, in a final volume of 5 μl, from 0.005 to 5 mg/kg of agomelatine, 10 mg/kg of fluoxetine used as standard antidepressant control, or the solvent alone. In a second experiment, the i.p. injection following the intracerebral injection of ibotenate is carried out 2 hours, 4 hours or 8 hours later.

Molecules are shown by their SMILES.

Regarding `COc1ccc2cccc(CCNC(C)=O)c2c1` [agomelatine, N-[2-(7-methoxy-1-naphthyl)ethyl]acetamide], the “reduction of the lesions of the white matter” value (5 mg/kg i.p., co-administration immediately after 10 μg ibotenate intracerebral, 5-day-old mice) is given as 59%. Under “0.005 to 5 mg/kg i.p., co-administration immediately after 10 μg ibotenate”, the “effect on the lesions of the white matter (dose dependence)” value is “dose-dependent reduction of the lesions of the white matter”. Moreover, the “course of lesion size over time” value (co-treated concomitantly or after 8 hours, same lesions for first 24 hours, then over the next 4 days) is reported as “very major regression”. Besides, the “neuroprotection with delayed administration” value runs as follows: (i.p. administration 8 hours after the injection of ibotenate) “significant neuroprotection is restored”; (i.p. administration between 0 and 4 hours after the injection of ibotenate) “decreases”.
On to `CNCCC(Oc1ccc(C(F)(F)F)cc1)c1ccccc1` (stereo not drawn) [fluoxetine, reference compound], for which the “effect on the lesions of the white matter” value (10 mg/kg i.p., co-administration immediately after 10 μg ibotenate) is on record as “No significant effect”.
